From ChEMBL document CHEMBL5537152, “Targeted Degradation of PCSK9 In Vivo by Autophagy-Tethering Compounds” (J Med Chem, 2024)
Activity calls are given as the source filed them.

Experiments:
Mus musculus [1] = experiment: Antiatherosclerotic activity in hypercholesterolemic ApoE-/- mouse model assessed as decrease in liver fibrosis at 5 to 15 mg/kg/day, ip measured after 21 days by Masson staining based analysis; type: functional, organism-based; settings: dose 5-15 mg/kg/day, time 21.0 day
Mus musculus [2] = experiment: Synergistic antiatherosclerotic activity in hypercholesterolemic ApoE-/- mouse model assessed as effect on plasma TG level at 5 to 15 mg/kg, ip administered daily for 3 weeks in presence of SIMV; type: functional, organism-based; settings: dose 5-15 mg/kg
Mus musculus [3] = experiment: Synergistic antiatherosclerotic activity in hypercholesterolemic ApoE-/- mouse model assessed as increase in liver LDLR at 5 to 15 mg/kg, ip administered daily for 3 weeks in presence of SIMV by Western blot analysis; type: functional, organism-based; settings: dose 5-15 mg/kg
Mus musculus [4] = experiment: Antiatherosclerotic activity in hypercholesterolemic ApoE-/- mouse model assessed as accumulation of cholesterol in liver at 5 to 15 mg/kg/day, ip measured after 21 days; type: functional, organism-based; settings: dose 5-15 mg/kg/day, time 21.0 day
Mus musculus [5] = experiment: Synergistic antiatherosclerotic activity in hypercholesterolemic ApoE-/- mouse model assessed as effect on plasma MDA level at 5 to 15 mg/kg, ip administered daily for 3 weeks in presence of SIMV; type: functional, organism-based; settings: dose 5-15 mg/kg
Huh-7 [6] = experiment: Effect on PCSK9 mRNA level in human Huh-7 cells at 20 to 500 nM incubated for 12 hrs by qRT-PCR analysis; type: functional, cell-based; settings: dose 20-500 nM
Mus musculus [7] = experiment: Antiatherosclerotic activity in hypercholesterolemic ApoE-/- mouse model assessed as decrease in liver fibrosis at 5 to 15 mg/kg/day, ip measured after 21 days by H and E staining based analysis; type: functional, organism-based; settings: dose 5-15 mg/kg/day, time 21.0 day
Mus musculus [8] = experiment: Synergistic antiatherosclerotic activity in hypercholesterolemic ApoE-/- mouse model assessed as decrease in vacuolization in liver at 5 to 15 mg/kg, ip administered daily for 3 weeks in presence of SIMV by H and E staining based analysis; type: functional, organism-based; settings: dose 5-15 mg/kg
Mus musculus [9] = experiment: Antiatherosclerotic activity in hypercholesterolemic ApoE-/- mouse model assessed as decrease in TG accumulation in liver at 5 to 15 mg/kg/day, ip measured after 21 days; type: functional, organism-based; settings: dose 5-15 mg/kg/day, time 21.0 day
Mus musculus [10] = experiment: Synergistic antiatherosclerotic activity in hypercholesterolemic ApoE-/- mouse model assessed as […] in liver IL-1beta level at 5 to 15 mg/kg, ip administered daily for 3 weeks in presence of SIMV by Western blot analysis; type: functional, organism-based; settings: dose 5-15 mg/kg
Mus musculus [11] = experiment: Effect on body weight in hypercholesterolemic ApoE-/- mouse model at 0.5 to 30 mg/kg/day, ip measured for 14 days; type: functional, organism-based; settings: dose 0.5-30 mg/kg/day, time 14.0 day
Mus musculus [12] = experiment: Antiatherosclerotic activity in hypercholesterolemic ApoE-/- mouse model assessed as decrease in oxidative stress at 5 to 15 mg/kg/day, ip measured after 21 days; type: functional, organism-based; settings: dose 5-15 mg/kg/day, time 21.0 day
Mus musculus [13] = experiment: Synergistic antiatherosclerotic activity in hypercholesterolemic ApoE-/- mouse model assessed as decrease in liver oxidative stress at 5 to 15 mg/kg, ip administered daily for 3 weeks in presence of SIMV; type: functional, organism-based; settings: dose 5-15 mg/kg
Liver = experiment: In vivo induction of PCSK9 degradation in liver of hypercholesterolemic ApoE-/- mouse model at administered intraperitoneally daily for 3 weeks in presence of SIMV by Western blot analysis; type: functional, organism-based; settings: dose 5-15 mg/kg, route ip
Mus musculus [14] = experiment: Antiatherosclerotic activity in hypercholesterolemic ApoE-/- mouse model assessed as decrease in liver PCSK9 level at 5 to 15 mg/kg/day, ip measured after 21 days by immunohistochemistry analysis; type: functional, organism-based; settings: dose 5-15 mg/kg/day, time 21.0 day
Mus musculus [15] = experiment: Antiatherosclerotic activity in hypercholesterolemic ApoE-/- mouse model assessed as decrease in plaque area in aortic arch at 5 to 15 mg/kg/day, ip measured after 21 days by Aortic oil red O staining based analysis; type: functional, organism-based; settings: dose 5-15 mg/kg/day, time 21.0 day
Mus musculus [16] = experiment: Antiatherosclerotic activity in hypercholesterolemic ApoE-/- mouse model assessed as decrease in liver PCSK9 level at 5 to 15 mg/kg/day, ip measured after 21 days by Western blot analysis; type: functional, organism-based; settings: dose 5-15 mg/kg/day, time 21.0 day
Huh-7 [17] = experiment: Effect on SREBP2 mRNA level in human Huh-7 cells at 20 to 500 nM incubated for 12 hrs by qRT-PCR analysis; type: functional, cell-based; settings: dose 20-500 nM
Mus musculus [18] = experiment: Antiatherosclerotic activity in hypercholesterolemic ApoE-/- mouse model assessed as decrease in liver damage at 5 to 15 mg/kg/day, ip measured after 21 days; type: functional, organism-based; settings: dose 5-15 mg/kg/day, time 21.0 day
Mus musculus [19] = experiment: Antiatherosclerotic activity in hypercholesterolemic ApoE-/- mouse model assessed as decrease in plasma PCSK9 level at 5 to 15 mg/kg/day, ip measured after 21 days; type: functional, organism-based; settings: dose 5-15 mg/kg/day, time 21.0 day
Huh-7 [20] = experiment: Cytotoxicity against human Huh-7 cells upto 1000 nM incubated for 24 hrs by MTT assay; type: toxicity, cell-based; settings: huh-7, 24 h, 1 µM
Huh-7 [21] = experiment: Effect on LC3B level in human Huh-7 cells upto 100 nM incubated for 24 hrs by Western blot analysis; type: functional, cell-based
Huh-7 [22] = experiment: Effect on autophagic flux in human Huh-7 cells upto 100 nM incubated for 24 hrs by Western blot analysis; type: functional, cell-based
Mus musculus [23] = experiment: Antiatherosclerotic activity in hypercholesterolemic ApoE-/- mouse model assessed as decrease in plasma TG level administered intraperitoneally measured after 21 days; type: functional, organism-based; settings: dose 5-15 mg/kg/day, route ip, time 21.0 day
Mus musculus [24] = experiment: Synergistic antiatherosclerotic activity in hypercholesterolemic ApoE-/- mouse model assessed as increase in liver LDL uptake capacity at 5 to 15 mg/kg, ip administered daily for 3 weeks in presence of SIMV by Western blot analysis; type: functional, organism-based; settings: dose 5-15 mg/kg
Mus musculus [25] = experiment: Antiatherosclerotic activity in hypercholesterolemic ApoE-/- mouse model assessed as increase in liver LDLR level administered intraperitoneally measured after 14 days; type: functional, organism-based; settings: dose 15.0 mg/kg/day, route ip, time 14.0 day
Mus musculus [26] = experiment: Synergistic antiatherosclerotic activity in hypercholesterolemic ApoE-/- mouse model assessed as decrease in vacuolization in liver at 5 to 15 mg/kg, ip administered daily for 3 weeks in presence of SIMV by Masson staining based analysis; type: functional, organism-based; settings: dose 5-15 mg/kg
Mus musculus [27] = experiment: Antiatherosclerotic activity in hypercholesterolemic ApoE-/- mouse model assessed as decrease in vacuolization in liver at 5 to 15 mg/kg/day, ip measured after 21 days by H and E staining based analysis; type: functional, organism-based; settings: dose 5-15 mg/kg/day, time 21.0 day
Mus musculus [28] = experiment: Antiatherosclerotic activity in hypercholesterolemic ApoE-/- mouse model assessed as increase in liver LDLR level at 5 to 15 mg/kg/day, ip measured after 21 days by immunohistochemistry analysis; type: functional, organism-based; settings: dose 5-15 mg/kg/day, time 21.0 day
Mus musculus [29] = experiment: Synergistic antiatherosclerotic activity in hypercholesterolemic ApoE-/- mouse model assessed as decrease in liver cholesterol level at 5 to 15 mg/kg, ip administered daily for 3 weeks in presence of SIMV; type: functional, organism-based; settings: dose 5-15 mg/kg
Mus musculus [30] = experiment: Synergistic antiatherosclerotic activity in hypercholesterolemic ApoE-/- mouse model assessed as effect on plasma LDH level at 5 to 15 mg/kg, ip administered daily for 3 weeks in presence of SIMV; type: functional, organism-based; settings: dose 5-15 mg/kg
Huh-7 [31] = experiment: Effect on LDLR mRNA level in human Huh-7 cells at 20 to 500 nM incubated for 12 hrs by qRT-PCR analysis; type: functional, cell-based; settings: dose 20-500 nM
Mus musculus [32] = experiment: Antiatherosclerotic activity in hypercholesterolemic ApoE-/- mouse model assessed as decrease in plaque area in […] at 5 to 15 mg/kg/day, ip measured after 21 days; type: functional, organism-based; settings: dose 5-15 mg/kg/day, time 21.0 day
Mus musculus [33] = experiment: Synergistic antiatherosclerotic activity in hypercholesterolemic ApoE-/- mouse model assessed as decrease in plaque area in aortic arch at 5 to 15 mg/kg, ip administered daily for 3 weeks in presence of SIMV by Aortic oil red O staining based analysis; type: functional, organism-based; settings: dose 5-15 mg/kg
Mus musculus [34] = experiment: Antiatherosclerotic activity in hypercholesterolemic ApoE-/- mouse model assessed as decrease in oxidative stress in liver at 5 to 15 mg/kg/day, ip measured after 21 days; type: functional, organism-based; settings: dose 5-15 mg/kg/day, time 21.0 day
Mus musculus [35] = experiment: Antiatherosclerotic activity in hypercholesterolemic ApoE-/- mouse model assessed as decrease in plasma LDL-C level administered intraperitoneally measured after 21 days; type: functional, organism-based; settings: dose 5-15 mg/kg/day, route ip, time 21.0 day
Mus musculus [36] = experiment: Antiatherosclerotic activity in hypercholesterolemic ApoE-/- mouse model assessed as increase in liver LDLR level at 5 to 15 mg/kg/day, ip measured after 21 days by Western blot analysis; type: functional, organism-based; settings: dose 5-15 mg/kg/day, time 21.0 day
Huh-7 [37] = settings: Homo sapiens, dose <= 100.0 nM
Description: Inhibition of oxidative stress injury in PA/LPS-stimulated human Huh-7 cells assessed as decrease in triglyceride level upto 100 nM

Mus musculus [38] = experiment: Synergistic antiatherosclerotic activity in hypercholesterolemic ApoE-/- mouse model assessed as decrease in plasma LDL-C level at 15 mg/kg, ip administered daily for 3 weeks in presence of SIMV; type: functional; set-up: scale not given: the % may be the effect or the level left
Mus musculus [39] = experiment: Synergistic antiatherosclerotic activity in hypercholesterolemic ApoE-/- mouse model assessed as effect on plasma GSH level at 5 to 15 mg/kg, ip administered daily for 3 weeks in presence of SIMV; type: functional, organism-based; settings: dose 5-15 mg/kg
Mus musculus [40] = experiment: Antiatherosclerotic activity in hypercholesterolemic ApoE-/- mouse model assessed as decrease in liver PCSK9 level administered intraperitoneally measured after 14 days; type: functional, organism-based; settings: dose 15.0 mg/kg/day, route ip, time 14.0 day
Mus musculus [41] = experiment: Antiatherosclerotic activity in hypercholesterolemic ApoE-/- mouse model assessed as decrease in plasma triglyceride level administered intraperitoneally measured after 14 days; type: functional, organism-based; settings: dose 15.0 mg/kg/day, route ip, time 14.0 day
Mus musculus [42] = experiment: Synergistic antiatherosclerotic activity in hypercholesterolemic ApoE-/- mouse model assessed as decrease in liver fibrosis at 5 to 15 mg/kg, ip administered daily for 3 weeks in presence of SIMV by Masson staining based analysis; type: functional, organism-based; settings: dose 5-15 mg/kg
Mus musculus [43] = experiment: Antiatherosclerotic activity in hypercholesterolemic ApoE-/- mouse model assessed as decrease in vacuolization in liver at 5 to 15 mg/kg/day, ip measured after 21 days by Masson staining based analysis; type: functional, organism-based; settings: dose 5-15 mg/kg/day, time 21.0 day
Mus musculus [44] = experiment: Synergistic antiatherosclerotic activity in hypercholesterolemic ApoE-/- mouse model assessed as decrease in liver fibrosis at 5 to 15 mg/kg, ip administered daily for 3 weeks in presence of SIMV by H and E staining based analysis; type: functional, organism-based; settings: dose 5-15 mg/kg
Mus musculus [45] = experiment: Antiatherosclerotic activity in hypercholesterolemic ApoE-/- mouse model assessed as decrease in plasma LDL-C level administered intraperitoneally measured after 14 days; type: functional, organism-based; settings: dose 15.0 mg/kg/day, route ip, time 14.0 day

COc1cc2c(cc1OCCCCN1C(=O)/C(=C\c3cc(Br)c(O)c(OC)c3)c3cc(Br)ccc31)C(C)(CC(=O)Nc1nccs1)NCC2 (stereo unspecified)
<=47.36%: Activity (Mus musculus [38])
Non-Toxic: Activity (Huh-7 [20])
active: Activity (Mus musculus [1]) | Activity (Mus musculus [2]) | Activity (Mus musculus [3]) | Activity (Mus musculus [4]) | Activity (Mus musculus [5]) | Activity (Mus musculus [7]) | Activity (Mus musculus [8]) | Activity (Mus musculus [9]) | Activity (Mus musculus [10]) | Activity (Mus musculus [12]) | Activity (Mus musculus [13]) | Activity (Liver) Dose-Dependent Effect | Activity (Mus musculus [14]) | Activity (Mus musculus [15]) | Activity (Mus musculus [16]) | Activity (Mus musculus [18]) | Activity (Mus musculus [19]) | Activity (Mus musculus [23]) Dose-Dependent Effect | Activity (Mus musculus [24]) | Activity (Mus musculus [25]) Dose-Dependent Effect | Activity (Mus musculus [26]) | Activity (Mus musculus [27]) | Activity (Mus musculus [28]) | Activity (Mus musculus [29]) | Activity (Mus musculus [30]) | Activity (Mus musculus [32]) | Activity (Mus musculus [33]) | Activity (Mus musculus [34]) | Activity (Mus musculus [35]) Dose-Dependent Effect | Activity (Mus musculus [36]) | inhibition (Huh-7 [37]) | Activity (Mus musculus [39]) | Activity (Mus musculus [40]) Dose-Dependent Effect | Activity (Mus musculus [41]) Dose-Dependent Effect | Activity (Mus musculus [42]) | Activity (Mus musculus [43]) | Activity (Mus musculus [44]) | Activity (Mus musculus [45]) Dose-Dependent Effect
inactive: Activity (Huh-7 [6]) | Activity (Mus musculus [11]) | Activity (Huh-7 [17]) | Activity (Huh-7 [21]) | Activity (Huh-7 [22]) | Activity (Huh-7 [31])
